Measurements from ChEMBL document CHEMBL1201862, “PubChem BioAssay data set” (2004).
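Five concentrations, 48 hours, 96-well plates. GI50: concentration for 50% inhibition of growth.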 Active and inactive are the calls of the source. Rule as the data show it: active = GI50 up to about 1.1 µM and inactive = higher.

Tests used:
Test in all cases: NCI anticancer screen, dose series, 48 h
[1] = system: A498
[2] = system: CAKI-1
[3] = system: COLO 205
[4] = system: HCC 2998
[5] = system: HCT-116
[6] = system: HOP-62
[7] = system: LOX IMVI
[8] = system: MDA-N
[9] = system: Malme-3M
[10] = system: NCI-H226
[11] = system: NCI/ADR-RES
[12] = system: OVCAR-5
[13] = system: OVCAR-8
[14] = system: PC-3
[15] = system: SK-MEL-2
[16] = system: SNB-75
[17] = system: SW-620
[18] = system: UACC-62
[19] = system: M19-MEL

Row | Compound | GI50 [1] | GI50 [2] | GI50 [3] | GI50 [4] | GI50 [5] | GI50 [6] | GI50 [7] | GI50 [8] | GI50 [9] | GI50 [10] | GI50 [11] | GI50 [12] | GI50 [13] | GI50 [14] | GI50 [15] | GI50 [16] | GI50 [17] | GI50 [18] | GI50 [19]
1 | C[N+](C)(C)CCN[N+]1(C)CCCc2ccccc21 (centres undefined) | 17.7 µM (inactive) | > 100 µM (inactive) | 36.2 µM (inactive) | > 100 µM (inactive) | 52 µM (inactive) | > 100 µM (inactive) | > 100 µM (inactive) | > 100 µM (inactive) | 23 µM (inactive) | 54.1 µM (inactive) | > 100 µM (inactive) | > 100 µM (inactive) | > 100 µM (inactive) | > 100 µM (inactive) | > 100 µM (inactive) | > 100 µM (inactive) | 38.5 µM (inactive) | > 100 µM (inactive) | –
2 | C[C@]12CC[C@@H]3c4ccc(O)cc4CC[C@H]3[C@@H]1CC[C@@H]2OC(=O)CCc1ccccc1 | 17.4 µM (inactive) | 18.4 µM (inactive) | 19.6 µM (inactive) | 19.6 µM (inactive) | 20.3 µM (inactive) | 22.1 µM (inactive) | 18.2 µM (inactive) | 7.46 µM (inactive) | 17.6 µM (inactive) | 19.1 µM (inactive) | 16.6 µM (inactive) | 44.4 µM (inactive) | 22.8 µM (inactive) | 18.3 µM (inactive) | 15.2 µM (inactive) | 15.1 µM (inactive) | 23.3 µM (inactive) | 13.9 µM (inactive) | –
3 | COc1ccc2cc3nc(O)cc(O)c3cc2c1OC | > 100 µM (inactive) | > 100 µM (inactive) | – | > 100 µM (inactive) | > 100 µM (inactive) | > 100 µM (inactive) | > 100 µM (inactive) | – | > 100 µM (inactive) | > 100 µM (inactive) | – | > 100 µM (inactive) | > 100 µM (inactive) | – | > 100 µM (inactive) | > 100 µM (inactive) | > 100 µM (inactive) | > 100 µM (inactive) | > 100 µM (inactive)
4 | C=C(C)CN(CC#N)CC(=C)C | > 100 µM (inactive) | > 100 µM (inactive) | > 100 µM (inactive) | > 100 µM (inactive) | > 100 µM (inactive) | > 100 µM (inactive) | > 100 µM (inactive) | > 100 µM (inactive) | > 100 µM (inactive) | > 100 µM (inactive) | > 100 µM (inactive) | > 100 µM (inactive) | > 100 µM (inactive) | > 100 µM (inactive) | > 100 µM (inactive) | > 100 µM (inactive) | > 100 µM (inactive) | > 100 µM (inactive) | –
5 | COc1ccc(CN2CC(C)(C)C2=O)c(OC)c1 | > 100 µM (inactive) | – | > 100 µM (inactive) | > 100 µM (inactive) | > 100 µM (inactive) | > 100 µM (inactive) | > 100 µM (inactive) | – | > 100 µM (inactive) | > 100 µM (inactive) | – | – | > 100 µM (inactive) | – | > 100 µM (inactive) | 70.8 µM (inactive) | > 100 µM (inactive) | > 100 µM (inactive) | > 100 µM (inactive)
6 | COC(=O)/C=C(/C(=O)OC)c1c(C)cc2c(C)cc(C)cc(C)c1-2 | 26.4 µM (inactive) | 32.6 µM (inactive) | 7.24 µM (inactive) | 16.4 µM (inactive) | 4.26 µM (inactive) | 9.14 µM (inactive) | 11.7 µM (inactive) | 2.4 µM (inactive) | 11.5 µM (inactive) | 21.1 µM (inactive) | 9.33 µM (inactive) | 18.9 µM (inactive) | 25.4 µM (inactive) | 19 µM (inactive) | 20 µM (inactive) | 16.7 µM (inactive) | 7.18 µM (inactive) | 9.77 µM (inactive) | –
7 | CC(=O)OCC1(C)C(O)CCC2(C)C1CCC1CC3CC12CCC3(O)CO (centres undefined) | 0.541 µM (active) | 17.9 µM (inactive) | > 100 µM (inactive) | 20.8 µM (inactive) | 76 µM (inactive) | 36.5 µM (inactive) | 44.3 µM (inactive) | > 100 µM (inactive) | > 100 µM (inactive) | > 100 µM (inactive) | 37.7 µM (inactive) | > 100 µM (inactive) | 44.1 µM (inactive) | > 91 µM (inactive) | > 100 µM (inactive) | > 100 µM (inactive) | > 95.7 µM (inactive) | 61.8 µM (inactive) | –
8 | CCOC(=O)C(C(=O)c1ccccc1C(=O)OC)=P(c1ccccc1)(c1ccccc1)c1ccccc1 | > 10 µM (inactive) | > 10 µM (inactive) | > 10 µM (inactive) | > 10 µM (inactive) | > 10 µM (inactive) | > 10 µM (inactive) | > 10 µM (inactive) | > 10 µM (inactive) | > 10 µM (inactive) | > 10 µM (inactive) | > 10 µM (inactive) | > 10 µM (inactive) | > 10 µM (inactive) | > 10 µM (inactive) | > 10 µM (inactive) | > 10 µM (inactive) | > 10 µM (inactive) | > 10 µM (inactive) | –
9 | COc1cccc(OCC(=N/NC(=O)c2ccncc2)/N=C/c2cccnc2)c1 | > 100 µM (inactive) | > 100 µM (inactive) | > 100 µM (inactive) | > 100 µM (inactive) | > 100 µM (inactive) | > 100 µM (inactive) | > 100 µM (inactive) | > 100 µM (inactive) | > 100 µM (inactive) | > 100 µM (inactive) | > 100 µM (inactive) | > 100 µM (inactive) | 86.3 µM (inactive) | > 100 µM (inactive) | > 100 µM (inactive) | > 100 µM (inactive) | > 100 µM (inactive) | > 100 µM (inactive) | –
10 | Clc1cc(Cl)c2cc3cccc[n+]3cc2c1Cl | 18.6 µM (inactive) | 6.17 µM (inactive) | 14.8 µM (inactive) | 17.1 µM (inactive) | 6.44 µM (inactive) | 15.6 µM (inactive) | 15.7 µM (inactive) | 16.5 µM (inactive) | 22.2 µM (inactive) | 16.4 µM (inactive) | 18.3 µM (inactive) | 19.2 µM (inactive) | 15.1 µM (inactive) | 14 µM (inactive) | 16.3 µM (inactive) | 12 µM (inactive) | 17.6 µM (inactive) | 15.3 µM (inactive) | –
11 | CCCC(=O)N[C@@H](Cc1cc(I)c(O)c(I)c1)C(=O)NCCCNCCCCNCCCNC(=O)[C@@H](N)CCCN=C(N)N | – | – | 40.6 µM (inactive) | 42.3 µM (inactive) | 67 µM (inactive) | 33.8 µM (inactive) | 94 µM (inactive) | – | > 100 µM (inactive) | > 100 µM (inactive) | – | – | > 100 µM (inactive) | – | – | – | > 100 µM (inactive) | 44.9 µM (inactive) | 40.1 µM (inactive)
12 | C[C@]12C(=O)OC[C@H](c3ccccc3)N1C(=O)N(Cc1ccccc1)[C@@H]2CO | > 100 µM (inactive) | > 100 µM (inactive) | > 100 µM (inactive) | > 100 µM (inactive) | > 100 µM (inactive) | > 100 µM (inactive) | > 100 µM (inactive) | > 100 µM (inactive) | > 100 µM (inactive) | > 100 µM (inactive) | > 100 µM (inactive) | > 100 µM (inactive) | > 100 µM (inactive) | > 100 µM (inactive) | > 100 µM (inactive) | 45.6 µM (inactive) | > 100 µM (inactive) | > 100 µM (inactive) | –
13 | S=C(/N=c1\sc(NCc2ccccc2)nc2sc3c(c12)CCN(N1CCc2c(sc4nc(NCc5ccccc5)s/c(=N\C(=S)NCc5ccccc5)c24)C1)C3)NCc1ccccc1 | 52 µM (inactive) | 21.9 µM (inactive) | 32.1 µM (inactive) | 44.7 µM (inactive) | 7.74 µM (inactive) | 27.5 µM (inactive) | 15 µM (inactive) | 42.5 µM (inactive) | 70.3 µM (inactive) | 49.9 µM (inactive) | 37.8 µM (inactive) | 45 µM (inactive) | 20.9 µM (inactive) | 17 µM (inactive) | 58.3 µM (inactive) | 17.4 µM (inactive) | 22.3 µM (inactive) | 38.6 µM (inactive) | –
14 | Cc1nc2c(=S)n(C)ncc2[nH]1 | > 100 µM (inactive) | > 100 µM (inactive) | > 100 µM (inactive) | > 100 µM (inactive) | > 100 µM (inactive) | > 100 µM (inactive) | > 100 µM (inactive) | > 100 µM (inactive) | 0.0133 µM (active) | > 100 µM (inactive) | > 100 µM (inactive) | > 100 µM (inactive) | > 100 µM (inactive) | > 100 µM (inactive) | > 100 µM (inactive) | > 100 µM (inactive) | > 100 µM (inactive) | > 100 µM (inactive) | –
15 | N/C1=C/C(=O)NC(=O)c2c(c3ccccc3oc2=O)C1 | > 100 µM (inactive) | > 100 µM (inactive) | > 100 µM (inactive) | > 100 µM (inactive) | > 100 µM (inactive) | > 100 µM (inactive) | > 100 µM (inactive) | > 100 µM (inactive) | > 100 µM (inactive) | > 100 µM (inactive) | > 100 µM (inactive) | > 100 µM (inactive) | > 100 µM (inactive) | > 100 µM (inactive) | > 100 µM (inactive) | > 100 µM (inactive) | > 100 µM (inactive) | > 100 µM (inactive) | –
16 | CCC1(O)C(=O)OCc2c1cc1n(c2=O)Cc2cc3cc(N)ccc3nc2-1 (centres undefined) | 0.125 µM (active) | < 0.01 µM (active) | 0.366 µM (active) | 0.0345 µM (active) | < 0.01 µM (active) | < 0.01 µM (active) | < 0.01 µM (active) | 0.0232 µM (active) | 0.0299 µM (active) | < 0.0338 µM (active) | < 0.01 µM (active) | < 0.0271 µM (active) | < 0.0128 µM (active) | 0.0702 µM (active) | 0.0964 µM (active) | < 0.01 µM (active) | 0.0219 µM (active) | < 0.01 µM (active) | –
